These are literature values, as cited in US20120315265A1, “HYDROGEL-FORMING POLYMER, AND PREPARATION PROCESS AND USES THEREOF” (CHANG GUNG UNIVERSITY, priority 2011, published 2012).

The conditions of series [1]: in vivo.
The conditions of series [2]: in the anterior chamber.

Regarding `CC[C@@H]1C(=O)OC[C@@H]1Cc1cncn1C` [pilocarpine], the “duration of pupillary constriction” value in series [1] was “up to 8 hour”. In series [2], the “effective therapeutic dose for IOP reduction” value is 10 to 33 µg/mL.
